Data reported in patent publication US20260274892A1, “MACROCYCLIC BROAD SPECTRUM ANTIBIOTICS” (RQx Pharmaceuticals, Inc., priority 2017, published 2026).

tested on: Escherichia coli ATCC 25922; assay: Minimum inhibitory concentration (MIC), CLSI broth micro-dilution, E. coli; type: cell-based; conditions: Escherichia coli, ATCC25922, 22 h, Table 7, cation adjusted Mueller Hinton Broth + 0.002% Tween-80, 35° C.
How it was run: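 Colonies grown 20 h at 35° C on Trypticase Soy agar (MRSA) or Luria agar (E. coli) were suspended in cation-adjusted Mueller Hinton broth with 0.002% Tween-80. Suspensions were added at OD600 0.0005 to 10-point twofold compound dilutions, then incubated 22 h at 35° C.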

SMILES	MIC [µM]
Cc1nc(-c2ccc(C(C)(C)C)cc2)nc(C)c1C(=O)N[C@@H](CCNS(N)(=O)=O)C(=O)N(C)[C@@H]1C(=O)N[C@@H](C)C(=O)N[C@H](C(=O)NCC#N)Cc2ccc(OCCN)c(c2)-c2cc1ccc2OCCN (racemic) [Compound 574, rac-(8S,11S,14S)-3,18-bis(2-aminoethoxy)-N-(cyanomethyl)-11-methyl-14-[methyl-[rac-(2S)-2-[[2-(4-tert-butylphenyl)-4,6-dimethyl-pyrimidine-5-carbonyl]amino]-4-(sulfamoylamino)butanoyl]amino]-10,13-dioxo-9,12-diazatricyclo[13.3.1.12,6]icosa-1(18),2(20),3,5,15(19),16-hexaene-8-carboxamide]	0.5
Cc1nc(-c2ccc(OC3CCCCC3)cc2)nc(C)c1C(=O)N[C@@H](CNS(N)(=O)=O)C(=O)N(C)[C@@H]1C(=O)N[C@@H](C)C(=O)N[C@H](C(=O)NCC#N)Cc2ccc(OCCCN)c(c2)-c2cc1ccc2OCCCN (racemic) [Compound 576, rac-(8S,11S,14S)-3,18-bis(3-aminopropoxy)-N-(cyanomethyl)-11-methyl-14-[methyl-[rac-(2S)-2-[[2-[4-(cyclohexoxy)phenyl]-4,6-dimethyl-pyrimidine-5-carbonyl]amino]-3-(sulfamoylamino)propanoyl]amino]-10,13-dioxo-9,12-diazatricyclo[13.3.1.12,6]icosa-1(18),2(20),3,5,15(19),16-hexaene-8-carboxamide]	0.5
Cc1nc(-c2ccc(OC(C)C)cc2)nc(C)c1C(=O)N[C@@H](CNS(N)(=O)=O)C(=O)N(C)[C@@H]1C(=O)N[C@@H](C)C(=O)N[C@H](C(=O)NCC#N)Cc2ccc(OC[C@H](O)CN)c(c2)-c2cc1ccc2OC[C@H](O)CN (racemic) [Compound 579, rac-(8S,11S,14S)-N-(cyanomethyl)-11-methyl-14-[methyl-[rac-(2S)-2-[[2-(4-isopropoxyphenyl)-4,6-dimethyl-pyrimidine-5-carbonyl]amino]-3-(sulfamoylamino)propanoyl]amino]-10,13-dioxo-3,18-bis[rac-(2R)-3-amino-2-hydroxy-propoxy]-9,12-diazatricyclo[13.3.1.12,6]icosa-1(18),2(20),3,5,15(19),16-hexaene-8-carboxamide]	0.75
Cc1nc(-c2ccc(C(C)(C)C)cc2)nc(C)c1C(=O)N[C@@H](CCNS(N)(=O)=O)C(=O)N(C)[C@@H]1C(=O)N[C@@H](C)C(=O)N[C@H](C(=O)NCC#N)Cc2ccc(OC[C@H](O)CN)c(c2)-c2cc1ccc2OC[C@H](O)CN (racemic) [Compound 580, rac-(8S,11S,14S)-N-(cyanomethyl)-11-methyl-14-[methyl-[rac-(2S)-2-[[2-(4-tert-butylphenyl)-4,6-dimethyl-pyrimidine-5-carbonyl]amino]-4-(sulfamoylamino)butanoyl]amino]-10,13-dioxo-3,18-bis[rac-(2R)-3-amino-2-hydroxy-propoxy]-9,12-diazatricyclo[13.3.1.12,6]icosa-1(18),2(20),3,5,15(19),16-hexaene-8-carboxamide]	0.58
Cc1nc(-c2ccc(C(C)(C)C)cc2)nc(C)c1C(=O)N[C@@H](CNS(N)(=O)=O)C(=O)N(C)[C@@H]1C(=O)N[C@@H](C)C(=O)N[C@H](C(=O)NCC#N)Cc2ccc(OCCN)c(c2)-c2cc1cc(OCCN)c2O (racemic) [Compound 584, rac-(8S,11S,14S)-3,17-bis(2-aminoethoxy)-N-(cyanomethyl)-18-hydroxy-11-methyl-14-[methyl-[rac-(2S)-2-[[2-(4-tert-butylphenyl)-4,6-dimethyl-pyrimidine-5-carbonyl]amino]-3-(sulfamoylamino)propanoyl]amino]-10,13-dioxo-9,12-diazatricyclo[13.3.1.12,6]icosa-1(18),2(20),3,5,15(19),16-hexaene-8-carboxamide]	0.5

The next lines start with the values.

MIC [µM]	SMILES
0.31	Cc1nc(-c2ccc(C(C)(C)C)cc2)nc(C)c1C(=O)N[C@@H](CNS(N)(=O)=O)C(=O)N(C)[C@@H]1C(=O)N[C@@H](C)C(=O)N[C@H](C(=O)NCC#N)Cc2ccc(OCCCN)c(c2)-c2cc1ccc2OCCCN (racemic) [Compound 575, rac-(8S,11S,14S)-3,18-bis(3-aminopropoxy)-N-(cyanomethyl)-11-methyl-14-[methyl-[rac-(2S)-2-[[2-(4-tert-butylphenyl)-4,6-dimethyl-pyrimidine-5-carbonyl]amino]-3-(sulfamoylamino)propanoyl]amino]-10,13-dioxo-9,12-diazatricyclo[13.3.1.12,6]icosa-1(18),2(20),3,5,15(19),16-hexaene-8-carboxamide]
0.25	Cc1nc(-c2ccc(C(C)(C)C)cc2)nc(C)c1C(=O)N[C@@H](CNS(N)(=O)=O)C(=O)N(C)[C@@H]1C(=O)N[C@@H](C)C(=O)N[C@H](C(=O)NCC#N)Cc2ccc(OC[C@@H](O)CN)c(c2)-c2cc1ccc2OC[C@@H](O)CN (racemic) [Compound 581, rac-(8S,11S,14S)-N-(cyanomethyl)-11-methyl-14-[methyl-[rac-(2S)-2-[[2-(4-tert-butylphenyl)-4,6-dimethyl-pyrimidine-5-carbonyl]amino]-3-(sulfamoylamino)propanoyl]amino]-10,13-dioxo-3,18-bis[rac-(2S)-3-amino-2-hydroxy-propoxy]-9,12-diazatricyclo[13.3.1.12,6]icosa-1(18),2(20),3,5,15(19),16-hexaene-8-carboxamide]
0.21	Cc1nc(-c2ccc(C(C)(C)C)cc2)nc(C)c1C(=O)N[C@@H](CNS(N)(=O)=O)C(=O)N(C)[C@@H]1C(=O)N[C@@H](C)C(=O)N[C@H](C(=O)NCC#N)Cc2ccc(OC[C@H](O)CN)c(c2)-c2cc1ccc2OC[C@H](O)CN (racemic) [Compound 577, rac-(8S,11S,14S)-N-(cyanomethyl)-11-methyl-14-[methyl-[rac-(2S)-2-[[2-(4-tert-butylphenyl)-4,6-dimethyl-pyrimidine-5-carbonyl]amino]-3-(sulfamoylamino)propanoyl]amino]-10,13-dioxo-3,18-bis[rac-(2R)-3-amino-2-hydroxy-propoxy]-9,12-diazatricyclo[13.3.1.12,6]icosa-1(18),2(20),3,5,15(19),16-hexaene-8-carboxamide]
0.19	Cc1nc(-c2ccc(OC3CCCCC3)cc2)nc(C)c1C(=O)N[C@@H](CNS(N)(=O)=O)C(=O)N(C)[C@@H]1C(=O)N[C@@H](C)C(=O)N[C@H](C(=O)NCC#N)Cc2ccc(OC[C@H](O)CN)c(c2)-c2cc1ccc2OC[C@H](O)CN (racemic) [Compound 578, rac-(8S,11S,14S)-N-(cyanomethyl)-11-methyl-14-[methyl-[rac-(2S)-2-[[2-[4-(cyclohexoxy)phenyl]-4,6-dimethyl-pyrimidine-5-carbonyl]amino]-3-(sulfamoylamino)propanoyl]amino]-10,13-dioxo-3,18-bis[rac-(2R)-3-amino-2-hydroxy-propoxy]-9,12-diazatricyclo[13.3.1.12,6]icosa-1(18),2(20),3,5,15(19),16-hexaene-8-carboxamide]
0.19	COc1c(OC[C@H](O)CN)cc2cc1-c1cc(ccc1OC[C@H](O)CN)C[C@@H](C(=O)NCC#N)NC(=O)[C@H](C)NC(=O)[C@H]2N(C)C(=O)[C@H](CCN)NC(=O)c1c(C)nc(-c2ccc(C(C)(C)C)cc2)nc1C (racemic) [Compound 586, rac-(8S,11S,14S)-N-(cyanomethyl)-18-methoxy-11-methyl-14-[methyl-[rac-(2S)-4-amino-2-[[2-(4-tert-butylphenyl)-4,6-dimethyl-pyrimidine-5-carbonyl]amino]butanoyl]amino]-10,13-dioxo-3,17-bis[rac-(2R)-3-amino-2-hydroxy-propoxy]-9,12-diazatricyclo[13.3.1.12,6]icosa-1(18),2(20),3,5,15(19),16-hexaene-8-carboxamide]
0.094	Cc1nc(-c2ccc(C(C)(C)C)cc2)nc(C)c1C(=O)N[C@@H](CCN)C(=O)N(C)[C@@H]1C(=O)N[C@@H](C)C(=O)N[C@H](C(=O)NCC#N)Cc2ccc(OC[C@H](O)CN)c(c2)-c2cc1cc(OCCN)c2O (racemic) [Compound 587, rac-(8S,11S,14S)-17-(2-aminoethoxy)-N-(cyanomethyl)-18-hydroxy-11-methyl-14-[methyl-[rac-(2S)-4-amino-2-[[2-(4-tert-butylphenyl)-4,6-dimethyl-pyrimidine-5-carbonyl]amino]butanoyl]amino]-10,13-dioxo-3-[rac-(2R)-3-amino-2-hydroxy-propoxy]-9,12-diazatricyclo[13.3.1.12,6]icosa-1(18),2(20),3,5,15(19),16-hexaene-8-carboxamide]

same assay, conditions: Escherichia coli, ATCC25922, Table 7, cation adjusted Mueller Hinton Broth + 0.002% Tween-80, 35° C., 22 hours

SMILES	MIC [µM]
Cc1nc(-c2ccc(C(C)(C)C)cc2)nc(C)c1C(=O)N[C@@H](CNS(N)(=O)=O)C(=O)N(C)[C@@H]1C(=O)N[C@@H](C)C(=O)N[C@H](C(=O)NCC#N)Cc2ccc(OC[C@H](O)CN)c(c2)-c2cc1cc(OC[C@H](O)CN)c2O (racemic) [Compound 582, rac-(8S,11S,14S)-N-(cyanomethyl)-18-hydroxy-11-methyl-14-[methyl-[rac-(2S)-2-[[2-(4-tert-butylphenyl)-4,6-dimethyl-pyrimidine-5-carbonyl]amino]-3-(sulfamoylamino)propanoyl]amino]-10,13-dioxo-3,17-bis[rac-(2R)-3-amino-2-hydroxy-propoxy]-9,12-diazatricyclo[13.3.1.12,6]icosa-1(18),2(20),3,5,15(19),16-hexaene-8-carboxamide]	0.75
COc1c(OCCN)cc2cc1-c1cc(ccc1OCCN)C[C@@H](C(=O)NCC#N)NC(=O)[C@H](C)NC(=O)[C@H]2N(C)C(=O)[C@H](CNS(N)(=O)=O)NC(=O)c1c(C)nc(-c2ccc(C(C)(C)C)cc2)nc1C (racemic) [Compound 585, rac-(8S,11S,14S)-3,17-bis(2-aminoethoxy)-N-(cyanomethyl)-18-methoxy-11-methyl-14-[methyl-[rac-(2S)-2-[[2-(4-tert-butylphenyl)-4,6-dimethyl-pyrimidine-5-carbonyl]amino]-3-(sulfamoylamino)propanoyl]amino]-10,13-dioxo-9,12-diazatricyclo[13.3.1.12,6]icosa-1(18),2(20),3,5,15(19),16-hexaene-8-carboxamide]	0.38
